Measurements taken from patent US20220226299A1 (NIPPON CHEMIPHAR CO., LTD., priority 2019, published 2022).

Molecular target: T1, human Cav3.2 channels (Homo sapiens, UniProt O95180)
T1 construct: human Cav3.2 channel ORF (Open Reading Frame) gene; expressed in transfected cells; host or cells: HEK293 cells (ATCC No. CRL-1573), pcDNA3.1(+) plasmid
Test: T-type calcium blocking action: intracellular calcium (Fluo-4 AM fluorescence) in HEK293 cells steadily expressing human Cav3.2 channels
Format: cell-based
Conditions: HEK293 cells expressing human Cav3.2; KCl-stimulated calcium influx, Fluo-4 fluorescence; Tables 1 to 3
Source text: T-Type Calcium Blocking Action
(1) Construction of Cells Steadily Expressing Human Cav3.2 Channels
A sequence obtained by adding HindIII site and a kozak sequence (GCCACC) to the 5′-side of human Cav3.2 channel ORF (Open Reading Frame) gene and adding a KpnI site to the 3′-side of the gene, was incorporated into pcDNA3.1(+) (Thermo Fisher Scientific, #V790-20), and the plasmid was introduced into HEK293 cells (ATCC No. CRL-1573) according to the protocol of FuGENE (registered trademark) HD Transfection Reagent (Promega, #E2311).
(2) Method for Measuring Intracellular Calcium Concentration
The cells steadily expressing human Cav3.2 channels produced by testing method (1) were seeded on a 96-well plate (Dulbecco's modified Eagle medium (DMEM) medium containing 10% fetal bovine serum (FBS) was used as a medium). The cells were seeded and cultured for 48 hours under conditions of 37° C. and 5% CO2. Thereafter, the cells were washed with buffer A in order to remove the medium. Each well was treated with 80 μL of a fluorescent dye solution produced by mixing 22 μg of a fluorescent calcium indicator, Fluo-4 AM (Dojindo Laboratories, #F311), 20 μL of DMSO, 1 μL of 10% Pluronic F-127 (Thermo Fisher Scientific, #P6866), and 4 mL of buffer A. The cells were allowed to stand for 45 minutes at room temperature under light-shielded conditions, and then washed with buffer B in order to completely replace the solution. 70 μL of DMSO having the same concentration as that of a test compound as a negative control and 70 μL of a mixture containing 1 μM of a known blocker RQ-00311651 and the test compound as a positive control were each added to each well in a form of being contained in the buffer B. The test compound was dissolved in 100% DMSO and added at a final concentration of 0.1%. Then, the cells were further allowed to stand at room temperature under light-shielded conditions for 15 minutes and placed in a microplate reader EnVision (PerkinElmer). Background fluorescence was measured in each well, and then a 5 μg/mL grammicidin solution was added to buffer B at 10 μL/well. After 90 seconds, baseline fluorescence was measured. Thereafter, 83.8 mM KCl was added to buffer B at 20 μL/well, and an increase in fluorescence caused by calcium influx generated by the stimulus was measured for 10 seconds. A blocking percentage was calculated from a maximum fluorescence increase value from a baseline, a logarithmic value of a compound concentration and blockery activity were plotted, and thereby an IC50 value was calculated. In the measurement, fluorescence at 510 nm that was emitted when the cells were irradiated with excitation light at 485 nm was observed.
Buffer A: 140 mM NaCl, 5 mM KCl, 1 mM MgCl2, 0.5 mM CaCl2, 10 mM Glucose, 10 mM HEPES, pH 7.3
Buffer B: 137.9 mM Choline-Cl, 4.1 mM KCl, 1 mM MgCl2, 0.5 mM CaCl2, 10 mM Glucose, 10 mM HEPES, pH 7.3

T1 sequence (O95180 whole entry): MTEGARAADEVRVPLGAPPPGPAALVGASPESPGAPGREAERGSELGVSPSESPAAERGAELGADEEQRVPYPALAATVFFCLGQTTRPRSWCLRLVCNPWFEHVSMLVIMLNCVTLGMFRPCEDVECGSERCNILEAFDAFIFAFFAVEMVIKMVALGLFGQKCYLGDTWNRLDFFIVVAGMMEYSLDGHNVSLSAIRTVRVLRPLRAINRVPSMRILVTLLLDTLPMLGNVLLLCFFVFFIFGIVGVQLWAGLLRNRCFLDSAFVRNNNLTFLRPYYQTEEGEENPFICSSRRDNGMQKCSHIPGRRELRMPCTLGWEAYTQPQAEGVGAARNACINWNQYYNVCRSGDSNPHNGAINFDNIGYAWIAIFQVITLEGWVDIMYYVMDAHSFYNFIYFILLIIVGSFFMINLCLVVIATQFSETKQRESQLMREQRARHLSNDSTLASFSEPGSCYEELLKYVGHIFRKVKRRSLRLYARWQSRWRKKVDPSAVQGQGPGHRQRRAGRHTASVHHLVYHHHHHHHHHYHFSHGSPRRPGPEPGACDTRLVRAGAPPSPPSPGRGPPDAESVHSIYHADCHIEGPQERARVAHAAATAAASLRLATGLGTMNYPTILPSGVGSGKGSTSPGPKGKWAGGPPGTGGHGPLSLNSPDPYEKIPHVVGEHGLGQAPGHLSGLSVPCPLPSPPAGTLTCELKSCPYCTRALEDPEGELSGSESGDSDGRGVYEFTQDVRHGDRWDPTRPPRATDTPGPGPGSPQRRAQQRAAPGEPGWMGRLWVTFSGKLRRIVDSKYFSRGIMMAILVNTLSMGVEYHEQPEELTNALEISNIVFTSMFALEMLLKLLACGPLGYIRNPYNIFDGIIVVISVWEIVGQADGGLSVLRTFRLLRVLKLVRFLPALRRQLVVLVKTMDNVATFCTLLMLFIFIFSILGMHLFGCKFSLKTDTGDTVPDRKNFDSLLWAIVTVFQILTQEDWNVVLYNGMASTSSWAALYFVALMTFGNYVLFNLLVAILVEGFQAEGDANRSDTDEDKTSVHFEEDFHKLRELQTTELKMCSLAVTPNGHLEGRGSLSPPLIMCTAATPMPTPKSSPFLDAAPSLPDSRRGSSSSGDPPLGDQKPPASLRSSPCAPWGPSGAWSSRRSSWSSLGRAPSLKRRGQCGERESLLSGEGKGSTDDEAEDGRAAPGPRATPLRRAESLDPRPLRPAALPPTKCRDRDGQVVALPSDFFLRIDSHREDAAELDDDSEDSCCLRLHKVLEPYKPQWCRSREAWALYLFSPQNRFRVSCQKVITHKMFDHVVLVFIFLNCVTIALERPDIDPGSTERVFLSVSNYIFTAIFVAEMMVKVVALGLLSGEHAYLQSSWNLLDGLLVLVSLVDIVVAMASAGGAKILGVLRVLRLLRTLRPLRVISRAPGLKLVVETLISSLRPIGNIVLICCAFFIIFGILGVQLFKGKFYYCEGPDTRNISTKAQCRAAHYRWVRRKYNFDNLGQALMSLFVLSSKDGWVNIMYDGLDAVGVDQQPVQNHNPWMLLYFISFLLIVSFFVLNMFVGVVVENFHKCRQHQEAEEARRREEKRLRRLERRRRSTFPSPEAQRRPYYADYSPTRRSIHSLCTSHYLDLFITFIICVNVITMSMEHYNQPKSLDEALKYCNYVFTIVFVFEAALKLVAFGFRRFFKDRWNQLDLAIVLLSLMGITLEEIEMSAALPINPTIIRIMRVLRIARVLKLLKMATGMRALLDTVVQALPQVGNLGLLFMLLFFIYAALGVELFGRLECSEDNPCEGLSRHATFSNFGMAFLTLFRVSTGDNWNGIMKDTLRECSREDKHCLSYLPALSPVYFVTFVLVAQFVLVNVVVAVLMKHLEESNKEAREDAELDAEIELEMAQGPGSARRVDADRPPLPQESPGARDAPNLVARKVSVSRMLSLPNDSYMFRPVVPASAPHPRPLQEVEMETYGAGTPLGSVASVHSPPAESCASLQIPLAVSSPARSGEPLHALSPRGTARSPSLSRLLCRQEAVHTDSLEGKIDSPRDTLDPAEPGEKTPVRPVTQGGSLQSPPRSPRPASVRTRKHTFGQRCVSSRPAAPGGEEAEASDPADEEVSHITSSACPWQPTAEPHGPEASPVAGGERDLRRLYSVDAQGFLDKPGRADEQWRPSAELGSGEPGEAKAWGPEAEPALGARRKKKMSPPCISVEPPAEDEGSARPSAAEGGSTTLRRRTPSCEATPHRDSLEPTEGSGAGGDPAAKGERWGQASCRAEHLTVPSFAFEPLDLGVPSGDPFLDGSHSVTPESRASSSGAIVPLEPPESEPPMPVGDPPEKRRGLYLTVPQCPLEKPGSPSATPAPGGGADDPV

O=C(Cc1ccc(N2CCC(F)(F)C2)cc1)N[C@@H]1CCN(c2ccc(C(F)(F)F)nc2)C1 [Example 84, (R)-2-(4-(3,3-difluoropyrrolidin-1-yl)phenyl)-N-(1-(6-(trifluoromethyl)pyridin-3-yl)pyrrolidin-3-yl)acetamide]
IC50: 180 nM

COC(=O)C1(NC(=O)Cc2ccc(N3CCOCC3)cc2)CCN(c2cncc(C(F)(F)F)c2)C1 (stereo not drawn) [Example 41, Methyl 3-(2-(4-morpholinophenyl)acetamido)-1-(5-(trifluoromethyl)pyridin-3-yl)pyrrolidine-3-carboxylate]
IC50: 25 nM

CCC1(NC(=O)Cc2ccc(C3CC3)cc2)CCN(c2cncc(C(F)(F)F)c2)C1 (stereo not drawn) [Example 43, 2-(4-cyclopropylphenyl)-N-(3-ethyl-1-(5-(trifluoromethyl)pyridin-3-yl)pyrrolidin-3-yl)acetamide]
IC50: 190 nM

O=C(N[C@@H]1CCN(c2ccc(C(F)(F)F)nc2)C1)[C@H]1C[C@@H]1c1nc2ccc(F)cc2o1 [Example 48, (1S,2S)-2-(6-fluorobenzo[d]oxazol-2-yl)-N—((R)-1-(6-(trifluoromethyl)pyridin-3-yl)pyrrolidin-3-yl)cyclopropane-1-carboxyamide]
IC50: 240 nM

O=C(Cc1ccc(C2CC2)cc1)N[C@@H]1CCN(c2cncc(OCC(F)(F)F)c2)C1 [Example 126, (R)-2-(4-cyclopropylphenyl)-N-(1-(5-(2,2,2-trifluoroethoxy)pyridin-3-yl)pyrrolidin-3-yl)acetamide]
IC50: 830 nM

O=C(Cc1ccc2cc[nH]c2c1)N[C@@H]1CCN(c2nc(C(F)(F)F)cs2)C1 [Example 187, (R)-2-(1H-indol-6-yl)-N-(1-(4-(trifluoromethyl)thiazol-2-yl)pyrrolidin-3-yl)acetamide]
IC50: 510 nM

O=C(N[C@@H]1CCN(c2cncc(C(F)(F)F)c2)C1)[C@@H]1C[C@H]1c1nc2ccccc2o1 [Example 50, (1R,2R)-2-(benzo[d]oxazol-2-yl)-N—((R)-1-(5-(trifluoromethyl)pyridin-3-yl)pyrrolidin-3-yl)cyclopropane-1-carboxyamide]
IC50: 680 nM

CC(C)c1ccc(CC(=O)N[C@@H]2CCN(c3ccc(C(F)(F)F)nc3)C2)cc1 [Example 113, (R)-2-(4-isopropylphenyl)-N-(1-(6-(trifluoromethyl)pyridin-3-yl)pyrrolidin-3-yl)acetamide]
IC50: 100 nM

O=C(Cc1ccc(C2CC2)cc1)NC1(CO)CCN(c2cncc(C(F)(F)F)c2)C1 (stereo not drawn) [Example 103, 2-(4-cyclopropylphenyl)-N-(3-(hydroxymethyl)-1-(5-(trifluoromethyl)pyridin-3-yl)pyrrolidin-3-yl)acetamide]
IC50: 140 nM

CC(C(=O)N[C@@H]1CCN(c2ccc(C(F)(F)F)nc2)C1)c1ccc(C(F)(F)F)cc1 (stereo partly drawn) [Example 185, 2-(4-(Trifluoromethyl)phenyl)-N—((R)-1-(6-(trifluoromethyl)pyridin-3-yl)pyrrolidin-3-yl)propanamide]
IC50: 1400 nM

O=C(N[C@@H]1CCCN(c2ccc(C(F)(F)F)nc2)C1)C1CC1c1nc2ccccc2[nH]1 (single isomer, unassigned) [Example 63B]
IC50: > 10000 nM

O=C(Cc1ccc(C2CC2)cc1)N[C@@H]1CCN(c2cccc(O)c2)C1 [Example 178, (R)-2-(4-cyclopropylphenyl)-N-(1-(3-hydroxyphenyl)pyrrolidin-3-yl)acetamide]
IC50: 590 nM

O=C(Cc1ccc(-n2cccn2)cc1)N[C@@H]1CCN(c2cncc(C(F)(F)F)c2)C1 [Example 146, (R)-2-(4-(1H-pyrazol-1-yl)phenyl)-N-(1-(5-(trifluoromethyl)pyridin-3-yl)pyrrolidin-3-yl)acetamide]
IC50: 23 nM

CC(=O)OCC1(NC(=O)Cc2ccc(C3CC3)cc2)CCN(c2cncc(C(F)(F)F)c2)C1 (stereo not drawn) [Example 104, (3-(2-(4-cyclopropylphenyl)acetamido)-1-(5-(trifluoromethyl)pyridin-3-yl)pyrrolidin-3-yl)methyl acetate]
IC50: 460 nM

O=C(Cc1ccc(C2CC2)cc1)N[C@@H]1CCN(c2ccc(C(F)(F)F)nc2)C1 [Example 121, (R)-2-(4-cyclopropylphenyl)-N-(1-(6-(trifluoromethyl)pyridin-3-yl)pyrrolidin-3-yl)acetamide]
IC50: 120 nM

O=C(Cc1ccc(C2CC2)cc1)N[C@@H]1CCN(c2cncc(C(F)(F)F)c2)C1 [Example 1, (R)-2-(4-cyclopropylphenyl)-N-(1-(5-(trifluoromethyl)pyridin-3-yl)pyrrolidin-3-yl)acetamide]
IC50: 13 nM

O=C(Cc1c[nH]c2ccccc12)N[C@@H]1CCN(c2cncc(C(F)(F)F)c2)C1 [Example 78, (R)-2-(1H-indol-3-yl)-N-(1-(5-(trifluoromethyl)pyridin-3-yl)pyrrolidin-3-yl)acetamide]
IC50: 270 nM

O=C(Cc1ccc(OCC(F)(F)F)cc1)N[C@@H]1CCN(c2cncc(C(F)(F)F)c2)C1 [Example 116, (R)-2-(4-(2,2,2-trifluoroethoxy)phenyl)-N-(1-(5-(trifluoromethyl)pyridin-3-yl)pyrrolidin-3-yl)acetamide]
IC50: 40 nM

CC(C)c1ccc(CC(=O)N[C@@H]2CCN(c3ccc(C(F)(F)F)s3)C2)cc1 [Example 122, (R)-2-(4-isopropylphenyl)-N-(1-(5-(trifluoromethyl)thiophen-2-yl)pyrrolidin-3-yl)acetamide]
IC50: 1500 nM

O=C(N[C@@H]1CCN(c2cncc(C(F)(F)F)c2)C1)[C@H]1C[C@@H]1c1nc2cc(F)ccc2o1 [Example 49, (1S,2S)-2-(5-fluorobenzo[d]oxazol-2-yl)-N—((R)-1-(5-(trifluoromethyl)pyridin-3-yl)pyrrolidin-3-yl)cyclopropane-1-carboxyamide]
IC50: 7.1 nM

CC(C)(O)COc1ccc(CC(=O)N[C@@H]2CCN(c3cncc(C(F)(F)F)c3)C2)cc1 [Example 27, (R)-2-(4-(2-hydroxy-2-methylpropoxy)phenyl)-N-(1-(5-(trifluoromethyl)pyridin-3-yl)pyrrolidin-3-yl)acetamide]
IC50: 700 nM

O=C(Cc1nc2ccc(Cl)cc2o1)N[C@@H]1CCN(c2cncc(C(F)(F)F)c2)C1 [Example 97, (R)-2-(6-chlorobenzo[d]oxazol-2-yl)-N-(1-(5-(trifluoromethyl)pyridin-3-yl)pyrrolidin-3-yl)acetamide]
IC50: 250 nM

O=C(Cc1ccc(C2CC2)cc1)N[C@H]1CN(c2ccc(C(F)(F)F)nc2)CC12CC2 [Example 7, (R)-2-(4-cyclopropylphenyl)-N-(5-(6-(trifluoromethyl)pyridin-3-yl)-5-azaspiro[2.4]heptan-7-yl) acetamide]
IC50: 97 nM

O=C(Cc1ccc(C2CC2)cc1)N[C@@H]1CCN(c2cccc(C(F)(F)F)n2)C1 [Example 179, (R)-2-(4-cyclopropylphenyl)-N-(1-(6-(trifluoromethyl)pyridin-2-yl)pyrrolidin-3-yl)acetamide]
IC50: 240 nM

CN(C)c1ccc(CC(=O)N[C@@H]2CCN(c3cncc(C(F)(F)F)c3)C2)cc1 [Example 29, (R)-2-(4-(dimethylamino)phenyl)-N-(1-(5-(trifluoromethyl)pyridin-3-yl)pyrrolidin-3-yl)acetamide]
IC50: 40 nM

O=C(N[C@@H]1CCN(c2cncc(C(F)(F)F)c2)C1)C1CC1c1cc(Cl)cc(Cl)c1 (single isomer, unassigned) [Example 99A]
IC50: 90 nM

O=C(N[C@@H]1CCN(c2cncc(C(F)(F)F)c2)C1)C1CC1c1ccc(F)c(F)c1 (single isomer, unassigned) [Example 107A]
IC50: 4.7 nM
